Like-named read-outs stand apart in the source and are kept apart here.
Legend:
[1] = test system: Key Grass and Sedge Weeds as well as Grass Crops; experiment: Post-Emergent Test II: postemergent herbicidal activity, visual rating after 14 d (Table 8); format: in vivo; conditions: post-emergence, 336 h; for pest or weed control at 35 g/ha: 35 g ai/ha; for pest or weed control at 70 g/ha: 70 g ai/ha; for pest or weed control at 140 g/ha: 140 g ai/ha
Outline: (§1)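 Greenhouse plants at first or second true leaf stage sprayed with compound in acetone/DMSO-based spray solution with crop oil concentrate and Triton X-155 at 187 L/ha, tested at highest rate and ½× to 1/16× dilutions; solvent blank controls. Injury rated visually 0–100% versus untreated plants after 14 d.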

[2] = test system: Key Broadleaf Weed and Crop Species; experiment: Post-Emergent Test II: postemergent herbicidal activity, visual rating after 14 d (Table 7); format: in vivo; conditions: post-emergence, 336 h; for pest or weed control at 35 g/ha: 35 g ai/ha; for pest or weed control at 70 g/ha: 70 g ai/ha; for pest or weed control at 140 g/ha: 140 g ai/ha
Outline: as §1

[3] = barnyardgrass (Echinochloa crus-galli), read-out: Visual Growth Reduction (%) 14 Days After Application ECHCG
[4] = giant foxtail (Setaria faberi), read-out: Visual Growth Reduction (%) 14 Days After Application SETFA
[5] = maize, corn (Zea mays), read-out: Visual Growth Reduction (%) 14 Days After Application ZEAMX
[6] = rice (Oryza sativa), read-out: Visual Growth Reduction (%) 14 Days After Application ORYSA
[7] = wheat, spring (Triticum aestivum), read-out: Visual Growth Reduction (%) 14 Days After Application TRZAS
[8] = yellow nutsedge (Cyperus esculentus), read-out: Visual Growth Reduction (%) 14 Days After Application CYPES
[9] = lambsquarters (Chenopodium album), read-out: Visual Growth Reduction (%) 14 Days After Application CHEAL
[10] = oilseed rape, canola (Brassica napus), read-out: Visual Growth Reduction (%) 14 Days After Application BRSNN
[11] = redroot pigweed (Amaranthus retroflexus), read-out: Visual Growth Reduction (%) 14 Days After Application AMARE
[12] = sunflower (Helianthus annuus), read-out: Visual Growth Reduction (%) 14 Days After Application HELAN
[13] = velvetleaf (Abutilon theophrasti), read-out: Visual Growth Reduction (%) 14 Days After Application ABUTH
[14] = wild poinsettia (Euphorbia heterophylla), read-out: Visual Growth Reduction (%) 14 Days After Application EPHHL

Row | SMILES | pest or weed control at 35 g/ha [1, 3] [%] | pest or weed control at 70 g/ha [1, 3] [%] | pest or weed control at 140 g/ha [1, 3] [%] | pest or weed control at 35 g/ha [1, 4] [%] | pest or weed control at 70 g/ha [1, 4] [%] | pest or weed control at 140 g/ha [1, 4] [%] | pest or weed control at 35 g/ha [1, 5] [%] | pest or weed control at 70 g/ha [1, 5] [%] | pest or weed control at 140 g/ha [1, 5] [%] | pest or weed control at 35 g/ha [1, 6] [%] | pest or weed control at 70 g/ha [1, 6] [%] | pest or weed control at 140 g/ha [1, 6] [%] | pest or weed control at 35 g/ha [1, 7] [%] | pest or weed control at 70 g/ha [1, 7] [%] | pest or weed control at 140 g/ha [1, 7] [%] | pest or weed control at 35 g/ha [1, 8] [%] | pest or weed control at 70 g/ha [1, 8] [%] | pest or weed control at 140 g/ha [1, 8] [%] | pest or weed control at 35 g/ha [2, 9] [%] | pest or weed control at 70 g/ha [2, 9] [%] | further results
1 | COc1c(N)nc(-c2cc3c(cc2F)OC(F)(F)O3)nc1C(=O)O [Compound 68] | 60 to 74 | 60 to 74 | 75 to 84 | 60 to 74 | 60 to 74 | 60 to 74 | 45 to 59 | 60 to 74 | 75 to 84 | 0 to 29 | 0 to 29 | 0 to 29 | 0 to 29 | 45 to 59 | 45 to 59 | 0 to 29 | 0 to 29 | 0 to 29 | 0 to 29 | 0 to 29 | pest or weed control at 140 g/ha [2, 9]: 0 to 29%; pest or weed control at 35 g/ha [2, 10]: 0 to 29%; pest or weed control at 70 g/ha [2, 10]: 0 to 29%; pest or weed control at 140 g/ha [2, 10]: 0 to 29%; pest or weed control at 35 g/ha [2, 11]: 0 to 29%; pest or weed control at 70 g/ha [2, 11]: 0 to 29%; pest or weed control at 140 g/ha [2, 11]: 0 to 29%; pest or weed control at 35 g/ha [2, 12]: 30 to 44%; pest or weed control at 70 g/ha [2, 12]: 45 to 59%; pest or weed control at 140 g/ha [2, 12]: 60 to 74%; pest or weed control at 35 g/ha [2, 13]: 0 to 29%; pest or weed control at 70 g/ha [2, 13]: 0 to 29%; pest or weed control at 140 g/ha [2, 13]: 0 to 29%; pest or weed control at 35 g/ha [2, 14]: 75 to 84%; pest or weed control at 70 g/ha [2, 14]: 95 to 100%; pest or weed control at 140 g/ha [2, 14]: 95 to 100%
2 | Nc1c(F)c(-c2ccc(Br)c3c2OC(F)(F)O3)nc(C(=O)O)c1Cl [Compound 80] | 0 to 29 | 0 to 29 | 0 to 29 | 0 to 29 | 0 to 29 | 0 to 29 | 45 to 59 | 60 to 74 | 60 to 74 | 0 to 29 | 0 to 29 | 0 to 29 | 0 to 29 | 0 to 29 | 0 to 29 | 0 to 29 | 0 to 29 | 0 to 29 | 95 to 100 | 95 to 100 | pest or weed control at 140 g/ha [2, 9]: 95 to 100%; pest or weed control at 35 g/ha [2, 10]: 85 to 94%; pest or weed control at 70 g/ha [2, 10]: 85 to 94%; pest or weed control at 140 g/ha [2, 10]: 85 to 94%; pest or weed control at 35 g/ha [2, 11]: 95 to 100%; pest or weed control at 70 g/ha [2, 11]: 95 to 100%; pest or weed control at 140 g/ha [2, 11]: 95 to 100%; pest or weed control at 35 g/ha [2, 12]: 85 to 94%; pest or weed control at 70 g/ha [2, 12]: 85 to 94%; pest or weed control at 140 g/ha [2, 12]: 85 to 94%; pest or weed control at 35 g/ha [2, 13]: 60 to 74%; pest or weed control at 70 g/ha [2, 13]: 75 to 84%; pest or weed control at 140 g/ha [2, 13]: 85 to 94%; pest or weed control at 35 g/ha [2, 14]: 0 to 29%; pest or weed control at 70 g/ha [2, 14]: 0 to 29%; pest or weed control at 140 g/ha [2, 14]: 0 to 29%
3 | COC(=O)c1nc(-c2ccc3c(c2F)OC(F)(F)O3)cc(N)c1Cl [Compound 37, Methyl 4-amino-3-chloro-6-(2,2,4-trifluorobenzo-[d][1,3]dioxol-5-yl)picolinate] | 95 to 100 | 95 to 100 | 95 to 100 | 60 to 74 | 95 to 100 | 95 to 100 | 60 to 74 | 75 to 84 | 85 to 94 | 0 to 29 | 0 to 29 | 0 to 29 | 0 to 29 | 0 to 29 | 0 to 29 | 95 to 100 | 95 to 100 | 95 to 100 | 95 to 100 | 95 to 100 | pest or weed control at 140 g/ha [2, 9]: 95 to 100%; pest or weed control at 35 g/ha [2, 10]: 85 to 94%; pest or weed control at 70 g/ha [2, 10]: 95 to 100%; pest or weed control at 140 g/ha [2, 10]: 95 to 100%; pest or weed control at 35 g/ha [2, 11]: 85 to 94%; pest or weed control at 70 g/ha [2, 11]: 95 to 100%; pest or weed control at 140 g/ha [2, 11]: 95 to 100%; pest or weed control at 35 g/ha [2, 12]: 0 to 29%; pest or weed control at 70 g/ha [2, 12]: 30 to 44%; pest or weed control at 140 g/ha [2, 12]: 75 to 84%; pest or weed control at 35 g/ha [2, 13]: 95 to 100%; pest or weed control at 70 g/ha [2, 13]: 95 to 100%; pest or weed control at 140 g/ha [2, 13]: 95 to 100%; pest or weed control at 35 g/ha [2, 14]: 95 to 100%; pest or weed control at 70 g/ha [2, 14]: 95 to 100%; pest or weed control at 140 g/ha [2, 14]: 95 to 100%
4 | COc1c(C(=O)O)nc(-c2ccc3c(c2)OC(F)(F)O3)c(F)c1N [Compound 25] | 85 to 94 | 85 to 94 | 95 to 100 | 45 to 59 | 60 to 74 | 60 to 74 | 60 to 74 | 75 to 84 | 75 to 84 | 0 to 29 | 30 to 44 | 60 to 74 | 45 to 59 | 45 to 59 | 60 to 74 | 95 to 100 | 95 to 100 | 95 to 100 | 0 to 29 | 0 to 29 | pest or weed control at 140 g/ha [2, 9]: 45 to 59%; pest or weed control at 35 g/ha [2, 10]: 75 to 84%; pest or weed control at 70 g/ha [2, 10]: 95 to 100%; pest or weed control at 140 g/ha [2, 10]: 95 to 100%; pest or weed control at 35 g/ha [2, 11]: 0 to 29%; pest or weed control at 70 g/ha [2, 11]: 0 to 29%; pest or weed control at 140 g/ha [2, 11]: 0 to 29%; pest or weed control at 35 g/ha [2, 12]: 0 to 29%; pest or weed control at 70 g/ha [2, 12]: 0 to 29%; pest or weed control at 140 g/ha [2, 12]: 0 to 29%; pest or weed control at 35 g/ha [2, 13]: 45 to 59%; pest or weed control at 70 g/ha [2, 13]: 60 to 74%; pest or weed control at 140 g/ha [2, 13]: 75 to 84%; pest or weed control at 35 g/ha [2, 14]: 95 to 100%; pest or weed control at 70 g/ha [2, 14]: 95 to 100%; pest or weed control at 140 g/ha [2, 14]: 95 to 100%

From US9149038B2, “4-amino-6-(heterocyclic)picolinates and 6-amino-2-(heterocyclic)pyrimidine-4-carboxylates and their use as herbicides” (Dow AgroSciences LLC, priority 2013, dated 2015)
